Data from article doi:10.1101/2025.03.30.646141v1 (biorxiv, 2025).

Columns and labels:
APH(3’)-IIb WT [1] = target: T1, APH(3’)-IIb WT (Pseudomonas aeruginosa, UniProt Q9HWR2); assay: biochemical
T1 sequence (Q9HWR2 1-268): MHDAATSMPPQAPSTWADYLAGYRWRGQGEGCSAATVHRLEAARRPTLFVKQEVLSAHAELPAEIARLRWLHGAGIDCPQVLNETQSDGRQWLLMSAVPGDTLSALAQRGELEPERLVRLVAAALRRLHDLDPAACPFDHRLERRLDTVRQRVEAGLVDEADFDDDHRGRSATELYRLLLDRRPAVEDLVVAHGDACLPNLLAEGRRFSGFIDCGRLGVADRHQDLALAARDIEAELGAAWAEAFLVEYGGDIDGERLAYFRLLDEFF

APH(3’)-IIb WT [2] = target: T1, APH(3’)-IIb WT; assay: ITC; assay type: binding
APH(3’)-IIb WT [3] = target: T2, APH(3’)-IIb WT (Pseudomonas aeruginosa, UniProt Q9HWR2, M95L); assay: PK/LDH coupled assay; assay type: biochemical; conditions: 100 µM MgATP, Tris buffer pH 7.5, 25 °C
T2 sequence (Q9HWR2 1-268 M95L): T1 sequence (Q9HWR2 1-268)

SMILES	Kd (APH(3’)-IIb WT [1])	Kd (APH(3’)-IIb WT [2])	Km (APH(3’)-IIb WT [3])
CNC(C)[C@@H]1CC[C@@H](N)[C@@H](O[C@H]2[C@H](O)[C@@H](O[C@H]3OC[C@](C)(O)[C@H](NC)[C@H]3O)[C@H](N)C[C@@H]2N)O1 (stereo partly shown) [gentamicin]	59 ± 5 nM		
CN[C@@H]1[C@@H](O)[C@@H](O[C@@H]2[C@@H](O)[C@H](O[C@H]3O[C@H]([C@@H](C)O)[C@@H](O)[C@H](O)[C@H]3N)[C@@H](N)C[C@H]2N)OC[C@]1(C)O [Geneticin]	1590 ± 310 nM		
NC[C@H]1O[C@H](O[C@H]2[C@H](O)[C@@H](O[C@H]3O[C@H](CO)[C@@H](O)[C@H](N)[C@H]3O)[C@H](N)C[C@@H]2N)[C@H](N)[C@@H](O)[C@@H]1O [kanamycin B]		2 ± 1 nM	0.05 ± 0.03 µM
NC[C@H]1O[C@H](O[C@H]2[C@H](O)[C@@H](O[C@H]3O[C@H](CO)[C@@H](O)[C@H](N)[C@H]3O)[C@H](N)C[C@@H]2N)[C@H](O)[C@@H](O)[C@@H]1O [kanamycin A]			0.17 ± 0.06 µM
NC[C@H]1O[C@H](O[C@H]2[C@H](O[C@@H]3O[C@H](CO)[C@@H](O)[C@H]3O)[C@@H](O)[C@H](N)C[C@@H]2N)[C@H](N)[C@@H](O)[C@@H]1O [ribostamycin]		10 ± 1 nM	0.21 ± 0.17 µM
NCC[C@H](O)C(=O)N[C@@H]1C[C@H](N)[C@@H](O[C@H]2O[C@H](CN)[C@@H](O)[C@H](O)[C@H]2O)[C@H](O)[C@H]1O[C@H]1O[C@H](CO)[C@@H](O)[C@H](N)[C@H]1O [amikacin]		177000 ± 22000 nM	54.5 ± 21.5 µM
NC[C@@H]1O[C@H](O[C@H]2[C@@H](O)[C@H](O[C@@H]3[C@@H](O)[C@H](N)C[C@H](N)[C@H]3O[C@H]3O[C@H](CO)[C@@H](O)[C@H](O)[C@H]3N)O[C@@H]2CO)[C@H](N)[C@@H](O)[C@@H]1O [paromomycin]		173 ± 8 nM	0.53 ± 0.21 µM
Nc1ncnc2c1ncn2[C@@H]1O[C@H](COP(=O)(O)OP(=O)(O)O)[C@@H](O)[C@H]1O [ADP]		4100 ± 500 nM	
Nc1ncnc2c1ncn2[C@@H]1O[C@H](COP(=O)(O)OP(=O)(O)OP(=O)(O)O)[C@@H](O)[C@H]1O [ATP]		10000 ± 700 nM	
NC[C@@H]1O[C@H](O[C@H]2[C@@H](O)[C@H](O[C@@H]3[C@@H](O)[C@H](N)C[C@H](N)[C@H]3O[C@H]3O[C@H](CN)[C@@H](O)[C@H](O)[C@H]3N)O[C@@H]2CO)[C@H](N)[C@@H](O)[C@@H]1O [neomycin]		12 ± 2 nM	0.07 ± 0.06 µM
NC[C@H]1O[C@H](O[C@H]2[C@H](O)[C@@H](O[C@H]3O[C@H](CO)[C@@H](O)[C@H](N)[C@H]3O)[C@H](N)C[C@@H]2N)[C@H](N)C[C@@H]1O [tobramycin]		23 nM	
